What follows are compounds tested on γ-secretase (assay: Screening for γ-secretase-modulating activity, Aβ 42 in SKNBE2 cells carrying APP 695-wild type). Settings: at 3 μM.
Type: cell-based
Protocol: Screening of the Compounds of the Invention for γ-Secretase-Modulating Activity
Screening was carried out using SKNBE2 cells carrying the APP 695-wild type, grown in DMEM/NUT-mix F12 (HAM) provided by Gibco (cat no. 31330-38) containing 5% Serum/Fe supplemented with 1% non-essential amino acids.
Cells were grown to near confluency.
The screening was performed using the assay as described in Citron et al (1997) Nature Medicine 3: 67.
IC50-Values of Selected Compounds of the Invention on the γ-Secretase Activity.

Compound | WTAPP SKNBE2 Aβ 42 % Inhibition at 3 μM [%]
CC(C)CC(C)(C(=O)O)c1cc(Nc2ccc(C#N)cc2)cc(-c2ccc(C(F)(F)F)cc2)c1 (centres unmarked) [Compound 14, 2-[5-(4-Cyano-phenylamino)-4′-trifluoromethyl-biphenyl-3-yl]-2,4-dimethyl-pentanoic acid] | 17
CC(C)CC(C(=O)O)c1cc(Oc2cc(F)cc(F)c2)cc(-c2cc(C(F)(F)F)cc(C(F)(F)F)c2)c1 (centres unmarked) [Compound 36, 2-[5-(3,5-Difluoro-phenoxy)-3′,5′-bis-trifluoromethyl-biphenyl-3-yl]-4-methyl-pentanoic acid] | 90
CC(C)CC(C(=O)O)c1cc(Oc2cccc(C(F)(F)F)c2)cc(-c2ccc(Cl)c(C(F)(F)F)c2)c1 (centres unmarked) [Compound 22, 4-Methyl-2-[4′-chloro-3′-trifluoromethyl-5-(3-trifluoromethylphenoxy)-biphenyl-3-yl]-pentanoic acid] | 81
CC(C)CC(C(=O)O)c1cc(Oc2cc(F)cc(F)c2)cc(-c2cc(F)cc(C(F)(F)F)c2)c1 (centres unmarked) [Compound 33, 2-[5-(3,5-Difluoro-phenoxy)-3′-fluoro-5′-trifluoromethyl-biphenyl-3-yl]-4-methyl-pentanoic acid] | 59
COc1cc(Oc2cc(-c3ccc(C(F)(F)F)cc3)cc(C(CC(C)C)C(=O)O)c2)ccc1F (centres unmarked) [Compound 18, 2-[5-(4-Fluoro-3-methoxy-phenoxy)-4′-trifluoromethyl-biphenyl-3-yl]-4-methyl-pentanoic acid] | 19
CC(C)CC(C(=O)O)c1cc(Nc2ccc(Cl)cc2)cc(-c2ccc(C(F)(F)F)cc2)c1 (centres unmarked) [Compound 5, 2-[5-(4-Chloro-phenylamino)-4′-trifluoromethyl-biphenyl-3-yl]-4-methyl-pentanoic acid] | 79
CC(C)CC(C(=O)O)c1cc(Oc2ccccc2)cc(-c2ccc(C(F)(F)F)cc2)c1 (centres unmarked) [Compound 24, 4-Methyl-2-(5-phenoxy-4′-trifluoromethyl-biphenyl-3-yl)-pentanoic acid] | 45
CC(C)CC(C(=O)O)c1cc(Nc2ccc(F)cc2C(F)(F)F)cc(-c2cc(F)cc(C(F)(F)F)c2)c1 (centres unmarked) [Compound 41, 2-[5′-Fluoro-5-(4-fluoro-2-trifluoromethyl-phenylamino)-3′-trifluoromethyl-biphenyl-3-yl]-4-methyl-pentanoic acid] | 67
CC(C)CC(C(=O)O)c1cc(Nc2ccc(F)cc2C(F)(F)F)cc(-c2cc(C(F)(F)F)cc(C(F)(F)F)c2)c1 (centres unmarked) [Compound 45, 2-[5-(4-Fluoro-2-trifluoromethyl-phenylamino)-3′,5′-bis-trifluoromethyl-biphenyl-3-yl]-4-methyl-pentanoic acid] | 85
CC(C)CC(C(=O)O)c1cc(Oc2cccc(C(C)C)c2)cc(-c2ccc(C(F)(F)F)cc2)c1 (centres unmarked) [Compound 15, 2-[5-(3-Isopropyl-phenoxy)-4′-trifluoromethyl-biphenyl-3-yl]-4-methyl-pentanoic acid] | 65
CC(C)CC(C(=O)O)c1cc(Nc2cc(F)cc(F)c2)cc(-c2ccc(C(F)(F)F)cc2)c1 (centres unmarked) [Compound 1, 2-[5-(3,5-Difluoro-phenylamino)-4′-trifluoromethyl-biphenyl-3-yl]-4-methyl-pentanoic acid] | 73
CC(C)CC(C(=O)O)c1cc(Oc2ccc(F)cc2)cc(-c2ccc(C(F)(F)F)cc2)c1 (centres unmarked) [Compound 25, 2-[5-(4-Fluoro-phenoxy)-4′-trifluoromethyl-biphenyl-3-yl]-4-methyl-pentanoic acid] | 54
CC(C)CC(C(=O)O)c1cc(Nc2ccc(F)cc2F)cc(-c2ccc(C(F)(F)F)cc2)c1 (centres unmarked) [Compound 2, 2-[5-(2,4-Difluoro-phenylamino)-4′-trifluoromethyl-biphenyl-3-yl]-4-methyl-pentanoic acid] | 62
CC(C)CC(C(=O)O)c1cc(Oc2cc(F)cc(F)c2)cc(-c2ccc(Cl)c(C(F)(F)F)c2)c1 (centres unmarked) [Compound 23, 4-Methyl-2-[4′-chloro-3′-trifluoromethyl-5-(3,5-difluorophenoxy)-biphenyl-3-yl]-pentanoic acid] | 80
CC(C)CC(C(=O)O)c1cc(Oc2cc(F)cc(C(F)(F)F)c2)cc(-c2cc(F)cc(C(F)(F)F)c2)c1 (centres unmarked) [Compound 32, 2-[3′-Fluoro-5-(3-fluoro-5-trifluoromethyl-phenoxy)-5′-trifluoromethyl-biphenyl-3-yl]-4-methyl-pentanoic acid] | 87
COc1ccc(Oc2cc(-c3ccc(C(F)(F)F)cc3)cc(C(CC(C)C)C(=O)O)c2)cc1 (centres unmarked) [Compound 28, 2-[5-(4-Methoxy-phenoxy)-4′-trifluoromethyl-biphenyl-3-yl]-4-methyl-pentanoic acid] | −3
CC(C)CC(C(=O)O)c1cc(Nc2cc(C(F)(F)F)cc(C(F)(F)F)c2)cc(-c2cc(F)cc(C(F)(F)F)c2)c1 (centres unmarked) [Compound 42, 2-[5′-Fluoro-5-(3,5-bis-trifluoromethyl-phenylamino)-3′-trifluoromethyl-biphenyl-3-yl]-4-methyl-pentanoic acid] | 75
CC(C)CC(C(=O)O)c1cc(Nc2cc(C(F)(F)F)ccc2C(F)(F)F)cc(-c2ccc(Cl)c(C(F)(F)F)c2)c1 (centres unmarked) [Compound 39, 2-[4′-Chloro-5-(2,5-bis-trifluoromethyl-phenylamino)-3′-trifluoromethyl-biphenyl-3-yl]-4-methyl-pentanoic acid] | 95
CC(C)CC(C(=O)O)c1cc(Oc2cccc(C(F)(F)F)c2)cc(-c2cc(F)cc(C(F)(F)F)c2)c1 (centres unmarked) [Compound 31, 2-[3′-Fluoro-5′-trifluoromethyl-5-(3-trifluoromethyl-phenoxy)-biphenyl-3-yl]-4-methyl-pentanoic acid] | 84
CC(C)CC(C(=O)O)c1cc(Nc2cc(C(F)(F)F)cc(C(F)(F)F)c2)cc(-c2cc(C(F)(F)F)cc(C(F)(F)F)c2)c1 (centres unmarked) [Compound 43, 2-[5-(3,5-Bis-trifluoromethyl-phenylamino)-3′,5′-bis-trifluoromethyl-biphenyl-3-yl]-4-methyl-pentanoic acid] | 89

Same assay, conditions: read-out: WTAPP SKNBE2 Aβ 42 EC50

Compound | EC50 [nM]
CC(C)CC(C(=O)O)c1cc(Nc2cc(Cl)cc(Cl)c2)cc(-c2ccc(C(F)(F)F)cc2)c1 (centres unmarked) [Compound 7, 2-[5-(3,5-Dichloro-phenylamino)-4′-trifluoromethyl-biphenyl-3-yl]-4-methyl-pentanoic acid] | 420
CC(C)CC(C(=O)O)c1cc(Oc2ccc(C(F)(F)F)cc2)cc(-c2ccc(C(F)(F)F)cc2)c1 (centres unmarked) [Compound 16, 4-Methyl-2-[4′-trifluoromethyl-5-(4-trifluoromethyl-phenoxy)-biphenyl-3-yl]-pentanoic acid] | 2250
CC(C)CC(C(=O)O)c1cc(Nc2cc(F)cc(C(F)(F)F)c2)cc(-c2ccc(Cl)c(C(F)(F)F)c2)c1 (centres unmarked) [Compound 38, 2-[4′-Chloro-5-(3-fluoro-5-trifluoromethyl-phenylamino)-3′-trifluoromethyl-biphenyl-3-yl]-4-methyl-pentanoic acid] | 110
CC(C)CC(C(=O)O)c1cc(Nc2cc(C(F)(F)F)ccc2C(F)(F)F)cc(-c2ccc(C(F)(F)F)cc2)c1 (centres unmarked) [Compound 8, 2-[5-(2,5-Bis-trifluoromethyl-phenylamino)-4′-trifluoromethyl-biphenyl-3-yl]-4-methyl-pentanoic acid] | 200
CC(C)CC(C(=O)O)c1cc(Nc2cc(C(F)(F)F)cc(C(F)(F)F)c2)cc(-c2ccc(C(F)(F)F)cc2)c1 (centres unmarked) [Compound 3, 2-[5-(3,5-Bis-trifluoromethyl-phenylamino)-4′-trifluoromethyl-biphenyl-3-yl]-4-methyl-pentanoic acid] | 300
CC(C)CC(C(=O)O)c1cc(Nc2cc(C(F)(F)F)ccc2C(F)(F)F)cc(-c2cc(C(F)(F)F)cc(C(F)(F)F)c2)c1 (centres unmarked) [Compound 44, 2-[5-(2,5-Bis-trifluoromethyl-phenylamino)-3′,5′-bis-trifluoromethyl-biphenyl-3-yl]4-methyl-pentanoic acid] | 240
CC(C)CC(C(=O)O)c1cc(Nc2ccc(C(F)(F)F)cc2)cc(-c2ccc(C(F)(F)F)cc2)c1 (centres unmarked) [Compound 11, 4-Methyl-2-[4′-trifluoromethyl-5-(4-trifluoromethyl-phenylamino)-biphenyl-3-yl]-pentanoic acid] | 500
CC(C)CC(C(=O)O)c1cc(Oc2cc(F)c(F)c(F)c2)cc(-c2ccc(C(F)(F)F)cc2)c1 (centres unmarked) [Compound 17, 4-Methyl-2-[4′-trifluoromethyl-5-(3,4,5-trifluoro-phenoxy)-biphenyl-3-yl]-pentanoic acid] | 1850
CC(C)CC(C(=O)O)c1cc(Nc2cc(C(F)(F)F)cc(C(F)(F)F)c2)cc(-c2ccc(Cl)c(C(F)(F)F)c2)c1 (centres unmarked) [Compound 37, 2-[5-(3,5-Bis-trifluoromethyl-phenylamino)-4′-chloro-3′-trifluoromethyl-biphenyl-3-yl]-4-methyl-pentanoic acid] | 460
CC(C)CC(C(=O)O)c1cc(Nc2cc(C(F)(F)F)ccc2C(F)(F)F)cc(-c2cc(F)cc(C(F)(F)F)c2)c1 (centres unmarked) [Compound 40, 2-[5′-Fluoro-5-(2,5-bis-trifluoromethyl-phenylamino)-3′-trifluoromethyl-biphenyl-3-yl]-4-methyl-pentanoic acid] | 330
CC(C)CC(C(=O)O)c1cc(Oc2cccc(C(F)(F)F)c2)cc(-c2ccc(C(F)(F)F)cc2)c1 (centres unmarked) [Compound 20, 2 4-Methyl-2-[4′-trifluoromethyl-5-(3-trifluoromethyl-phenoxy)-biphenyl-3-yl]-pentanoic acid] | 660
CC(C)CC(C(=O)O)c1cc(Nc2cccc(C(F)(F)F)c2)cc(-c2ccc(C(F)(F)F)cc2)c1 (centres unmarked) [Compound 10, 4-Methyl-2-[4′-trifluoromethyl-5-(3-trifluoromethyl-phenylamino)-biphenyl-3-yl]-pentanoic acid] | 410
